Entries after “also recorded” stand apart in the source; their conditions may differ.
Legend:
HMLEshEcad cells [1] = test: Dose-response viability of HMLEshCntrl vs HMLEshEcad cells (validation of hits, 384-well, Cell-Titer-Glo); assay type: cell-based, human; settings: FIG. 4A; for selective toxicity towards HMLEshEcad cells relative to HMLEshCntrl cells: dose response on retesting
Experimental: (§1) FIG. 4A depicts dose response curves of HMLEshCntrl (A, light gray curve) and HMLEshEcad (A, dark gray curve) cells treated with the 8 compounds identified during the initial screen. 1000 cells of each line were seeded onto 384 well plates and treated with 8 different concentrations of compounds within a 2.5 log range. The cell viability after 3 day treatment was measured by Cell-Titer-Glo. […] FIG. 4B depicts dose response curves of HMLEshCntrl (curve with square data points) and HMLE-Twist (curve with triangular data points) cells treated with the same compounds as in (A). Note that selectivity of Salinomycin, Abamectin, Etoposide and Nigericin (Top, Left-to-Right) is retained even though a different method of EMT induction is used. […] 1 Day after seeding DMSO, Salinomycin (1.25 or 5 μM) or Abamectin (0.25 or 1.25 μM) was added at the indicated concentration. As the GFP vector contains a Blasticidin resistance gene, we used Blasticidin treatment as a positive control for the expansion of GFP-expressing control HMLE cells. After 3 day incubation the mix population of cells were analyzed by flow cytometry and the percentage of GFP-positive cells were determined. […] FIG. 4D depicts dose response curves of transformed HMLERshCntrl (light gray line) and HMLERshEcad (dark gray lines) cells treated with Salinomycin and Abamectin. Dotted line denotes the 50% fraction surviving.
We pursued 8 of the 32 compounds for further study and evaluated their effects across a range of doses.
For each of these compounds, we evaluated the effect on cell viability across a series of doses for sibling cell lines either induced into or not induced into EMT.
Information about the general automated HTS protocol is available online at broad.harvard.edu/chembio/index.html. The assay was initiated by plating 40 μL of medium containing 1000 cells/well into white 384-well opaque-bottom plates (Nunc, Rochester, N.Y.) using an automated plate filler (Bio-Tek μFiller; Winsooki, Vt.) and allowing the cells to adhere for 24 hours. 100 nL of compound stock solutions in dmso was transferred from stock plates into the 384-well assay plates using an automated pin-based compound transfer robot (CyBio CyBi-Well vario; Woburn, Mass.). For most compounds the final concentration in each well was calculated to be 10 uM.
The screen was performed in duplicate. For negative controls, entire dmso-treated control plates were employed, in addition to dmso-only control wells that were incorporated into each compound assay plate. The cells were assayed for luciferase activity with the addition 20 ul of CellTiter-Glo Luminescent Cell Viability Assay solution (Promega). The luminescent signal from each plate was detected using an automated plate reader (Perkin-Elmer Envision 1; Wellesley, Mass.).
(§2) Individual compounds were purchased from Sigma and dissolved in DMSO with the exception of nigericin which was dissolved in 100% ethanol. Activity of the compounds were quantified by generating dose-response curves for HMLE-shCntrl, HMLE-shEcad and HMLE-Twist under the same cell density and culture conditions described for the initial screen, using the 384-well plate based system.

[2] = system: breast CSC and progenitor genes; test: Gene set enrichment analysis of stem-like cell gene sets after treatment; assay type: cell-based; settings: in comparison with paclitaxel treatment, FIG. 16
Description: (§3) Gene set enrichment analysis was used to determine whether three previously reported sets of genes associated with stem-like cells were repressed in response to salinomycin in comparison with paclitaxel treatment. Graphed are the Kolmogorov-Smimov enrichment scores versus Gene ranks based on differential expression. P-values reflecting statistical significance for each analysis are shown.
as §3, with “Kolmogorov-Smirnov” for “Kolmogorov-Smimov”, “shown. The three previously reported gene signatures are: CD44+CD24− IGS (Liu et al., 2007), CD44+CD24− (Shipitsin et al., 2007) and Mammosphere (Dontu et al., 2003). (FIG. 16.)” for “shown.”

HMLE-Twist cells [3] = test: Co-culture of GFP-expressing HMLE cells and unlabelled HMLE-Twist cells, FACS for GFP positivity; assay type: cell-based, human; settings: FIG. 4C
Experimental: as §1
To examine the effects of salinomycin and abamectin treatment on heterogeneous populations of epithelial cells that have and epithelial cells that have not undergone EMT, we co-mixed GFP-labeled HMLE cells with unlabeled HMLE-Twist cells, treating the resulting co-cultures with compounds. As a positive control for this experiment we treated co-cultures with blasticidin, which selects for the differentiated HMLE-GFP cells, which harbor a blasticidin-resistance gene.
(§4) For the mix experiments, unlabelled and GFP-labeled cells were mixed at the indicated ratios and seeded onto 6-well plates. Triplicate wells were then treated with dmso or the compounds (paclitaxel, salinomycin, abamectin and blasticidin) for 48 hrs. The cells were washed with PBS, trypsinized and analyzed by FACS for GFP positivity.

HMLE-Twist cells [4] = test: Dose-response viability of HMLEshCntrl vs HMLE-Twist cells; assay type: cell-based, human; settings: EMT induced by Twist, FIG. 4B
Experimental: as §1, §2

HMLEshEcad cells [5] = test: Co-culture of GFP-labeled HMLEshEcad cells and control HMLE cells (1:20), FACS for GFP positivity; assay type: cell-based, human
Experimental: FIGS. 2A-2D depict that passage through the EMT leads to resistance to conventional chemotherapy drugs. FIG. 2A depicts dose response curves of transformed HMLERshCntrl (light gray line) and HMLERshEcad (dark gray line) cells treated with Paclitaxel and Doxorubicin. Dotted line denotes the 50% fraction surviving. […] FIG. 2B depicts the response of immortalized cells to chemotherapy drugs. HMLEshCntrl and HMLEshEcad cells were treated with the indicated drugs at three concentrations for 3 days and assayed for viability using the MTS assay. While Doxorubucin, Actinomycin D, Paclitaxel and Campthotecin are chemotherapeutic drugs, Staurosporine is a general kinase inhibitor that potently induce apoptosis. FIGS. 2C and 2D depict paclitaxel treatment leads to selective expansion of a minority cell population that has undergone an EMT. Control HMLE cells and GFP expressing HMLEshEcad cells were mixed at a ratio of 20:1 and seeded onto 6-well plates in triplicate. DMSO or Paclitaxel at 2.5 nm or 10 nm concentration was added onto the mixed cell populations 1 day after seeding followed by a 3 day incubation. The number of GFP-positive cells at the end of treatment were analyzed by flow cytometry. […] Note the increase in GFP positivity from 5% to 14% upon […] Paclitaxel treatment.
To further characterize the observed drug resistance, we paclitaxel-treated co-cultures of GFP-labeled HMLEshEcad cells and unlabeled controls cells (1:20 ratio).
This was observed independently of whether or not the cell lines had undergone neoplastic transformation. To determine the effect of conventional chemotherapy drugs on a mixture of epithelial cells that have and epithelial cells that have not undergone EMT, we co-mixed GFP-labeled HMLEsiEcad cells with unlabeled HMLEsiGFP cells at a ratio of 1:20, and treated the resulting co-culture with Paclitaxel. This non-stoichiometric mixture provided an internally controlled method to evaluate whether differential drug sensitivity was also manifest under conditions in which epithelial cells having undergone EMT were in the minority.
as §4

SMILES | IC50 fold lower for HMLEshEcad cells vs HMLEshCntrl cells (HMLEshEcad cells [1]; 3 day treatment, 8 concentrations) [fold] | selective toxicity towards HMLEshEcad cells relative to HMLEshCntrl cells (HMLEshEcad cells [1]) | selective toxicity towards HMLEshEcad cells relative to HMLEshCntrl cells (HMLEshEcad cells [1]; listed as Salinomycin) | expression of clinically relevant breast CSC and progenitor genes [2] | GFP-positive fraction relative to DMSO-treated controls (HMLE-Twist cells [3]; GFP-labeled HMLE + unlabeled HMLE-Twist) | proportion of HMLETwist cells in co-culture with control cells (HMLE-Twist cells [3]; Salinomycin 1.25 or 5 μM, Abamectin 0.25 or 1.25 μM) | selectivity for HMLE-Twist cells vs HMLEshCntrl; dose-response curves compared with HMLEshEcad (HMLE-Twist cells [4]) | increase in HMLEsiEcad cells having undergone EMT (HMLEshEcad cells [5]; 2.5 nM) | increase in HMLEsiEcad cells having undergone EMT relative to DMSO-treated co-cultures (HMLEshEcad cells [5]; 10 nM, after 3 days, 1:20 ratio) [fold] | increase in the proportion of HMLEshEcad cells compared to DMSO-treated co-cultures (HMLEshEcad cells [5]; 10 nM, treatment for 4 days, 1:20 ratio) [fold] | GFP positivity after treatment (from 5%) (HMLEshEcad cells [5]; 3 day incubation) [%]
CC[C@@H](C(=O)[C@@H](C)[C@@H](O)[C@H](C)[C@@H]1O[C@@H]([C@@H](CC)C(=O)O)CC[C@@H]1C)[C@H]1O[C@]2(C=C[C@@H](O)[C@]3(CC[C@@](C)([C@H]4CC[C@](O)(CC)[C@H](C)O4)O3)O2)[C@H](C)C[C@@H]1C [salinomycin] | ~10 | moderate to strong selectivity; also recorded: strong specificity | selective toxicity | reduces the expression | increase | dose-dependent decrease; also recorded: selection against the GFP-negative HMLE-twist cells | is retained |  |  |  | 
CC(=O)O[C@H]1C(=O)[C@@]2(C)[C@H]([C@H](OC(=O)c3ccccc3)[C@]3(O)C[C@H](OC(=O)[C@H](O)[C@@H](NC(=O)c4ccccc4)c4ccccc4)C(C)=C1C3(C)C)[C@]1(OC(C)=O)CO[C@@H]1C[C@@H]2O [paclitaxel] |  |  |  |  |  |  |  | more modest increase | 4 | 4 | 14
